{
  "source": "patent US20110200165A1",
  "about": "“CONTRAST AGENT-REINFORCED RADIOTHERAPY HAVING HIGH-OUTPUT TUBES” (BAYER SCHERING PHARMA AKTIENGESELLSCHAFT, priority 2008, published 2011)",
  "key": {"[1]": {"system": "glioblastoma (GS9L) rat tumor model", "assay": "Contrast medium-enhanced CT radiation therapy, survival, glioblastoma (GS9L) rat tumor model", "format": "in vivo", "conditions": "2 g of iodine/kg i.v. within 6 minutes before each of 6 sessions of 3 Gy, 140 kV, total 18 Gy; versus irradiation with common salt and untreated", "excerpt": "The therapeutic effectiveness of the contrast medium-enhanced radiation therapy was examined on a glioblastoma (GS9L) rat tumor model. To this end, male Fisher rats were inoculated stereotactically with 5 […]I of cell suspension (10^6 glioblastoma 9L cells) in the brain. After 8 days, the tumor growth was ensured by means of MRT, and the animals were divided into 3 groups (n=5). The animals of group 1 received no therapy and were used as a control. Animals of groups 2 and 3 passed through a CT radiation therapy with a total dose of 18 Gy at a tube voltage of 140 kV (Volume Zoom, Siemens Medical Solutions, Erlangen). Six therapy sessions were performed (2 per day at an interval of 4 hours), and one dose of 3 Gy was administered to the animals in each case. The radiation was limited to the tumor using the layer collimators and introduced within 90 s, which corresponds to a tumor-dose rate of 2 Gy/minute. Before each therapy session, a dimeric contrast medium (Isovist 300, Bayer Schering Pharma, Berlin) in a dose of 2 g of iodine/kg of body weight was administered to the animals of group 2. The latter was administered intravenously, within 6 minutes. With this application scheme, a maximum iodine-tumor concentration in a short plateau phase of between 6 and 7 minutes is achieved (FIG. 14). […]"}, "[2]": {"system": "glioblastoma (GS9L) rat tumor model", "assay": "Contrast medium-enhanced radiation therapy compared with linear accelerator, glioblastoma (GS9L) rat tumor model", "format": "in vivo", "method": "For examination of the therapeutic effectiveness of the contrast medium-enhanced radiation therapy with a high dose rate, the latter was compared to the therapeutic standard, i.e., a radiation therapy on the linear accelerator. To this end, a glioblastoma (GS9L) rat tumor model was used. Male Fischer rats were stereotactially inoculated with 5 µl of cell suspension (10^6 glioblastoma 9L cells) in the brain. After 8 days, the to growth was ensured by means of MRT, and the animals were divided into 3 groups. The animals of group 1 (n=6) obtained no therapy and were used as a control. Animals of group 2 (n=5) were treated on the linear accelerator (Novalis, Brain Lab AG, Feldkirchen) at 2 MV with a total dose of 18 Gy. This dose was administered to 3 in fractions of 6 Gy each on days 9, 10 and 11 after inoculation. The animals of group 3 passed through a contrast medium-enhanced radiation therapy on days 9-11 with a total dose of 18 Gy and a tube voltage of 140 kV (Volume Zoom, Siemens Medical Solutions, Erlangen). Six therapy sessions were carried out (2 per day at 4-hour intervals) and in each case a dose of 3 Gy was administered to the animals within 90 seconds. This corresponds to a tumor-dose rate of 2 Gy/minute. […]"}, "[3]": {"conditions": "rat, in vivo", "excerpt": "The contrast medium can also be intraarterially introduced into the vessel as in interventional angiography. To this end, a catheter is positioned in front of the outlet of the vascular section of interest. In the GS9L rat tumor model, the contrast medium concentration in the tumor was studied at a low flow rate for an intraarterial administration in 4 animals. To this end, the carotid artery was catheterized on day 10 after inoculation of the tumor cells, and a cannula was placed in the internal carotid artery (19). Via the latter, Isovist 300 was administered in a dosage of 2 g of iodine within 6 minutes. CT images of the rat head were made at the points in time 0, 1, 2, . . . 15 and 20 minutes after the beginning of the injection. For evaluation, the DynEva equipment software was used. The mean absorption in the tumor, adjacent healthy brain areas and in adjacent skin areas was determined for each point in time and converted into the corresponding iodine concentration. […] Relative to an intravenous administration, the plateau phase is extended to 60-120 seconds, and the drop in iodine concentration is slower. During the contrast medium administration phase, iodine accumulates analogously in the tumor and reaches a plateau after the end of the latter. […] In the healthy brain tissue, only very low iodine concentrations<0.5 mg/ml were observed."}},
  "data": [
    {"smiles": "CN(C(=O)CC(=O)N(C)c1c(I)c(C(=O)NC(CO)C(O)CO)c(I)c(C(=O)NC(CO)C(O)CO)c1I)c1c(I)c(C(=O)NC(CO)C(O)CO)c(I)c(C(=O)NC(CO)C(O)CO)c1I", "note": "(stereo not shown) [Isovist 300, Iotrolan]", "values": [
      {"measurement": "survival after contrast medium-enhanced radiation therapy", "setting": "[1]", "value": "considerable therapeutic advantage"},
      {"measurement": "animals showing a significant therapy effect (survival time)", "setting": "[2]; 2 g of iodine/kg i.v. within 6 minutes before each of 6 sessions of 3 Gy within 90 seconds, 140 kV, total 18 Gy", "value": "2 of 6"},
      {"measurement": "therapeutic result relative to standard therapy on the linear accelerator", "setting": "[2]; same total dose 18 Gy, linear accelerator 2 MV, 3 fractions of 6 Gy", "value": "therapeutic advantage"},
      {"measurement": "time of tumor iodine concentration maximum with plateau after the end of administration", "setting": "[3]", "value": "about 1 minute"}
    ]}
  ]
}
